Some test systems named below: SNB-19 CNS; MCF7 breast; HOP-92 NSCLC; HT29 colon; NCI-H23 lung; SF-295 CNS; HL-60(TB) leukemia; MDA-MB-231 breast; A549 NSCLC; HS 578T breast.
Assay in all cases: inhibition of tumour cell growth, NCI panel, 48 h

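These data come from cells grown in 96-well plates and exposed to compound for 48 hours at five concentrations. Definition used: TGI = concentration required for complete inhibition of growth.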 Bounds are passed on as bounds.

Among the data in PubChem BioAssay (NCI) are TGI values, retold here.

In the case of `Cc1ccc(C(=O)N/N=C(\N=Nc2ccc(C(=O)O)cc2)c2ccc(N(CCC#N)CCC#N)cc2C)cc1`, the TGI in the experiment with SNB-19 CNS, with MCF7 breast, in the experiment with HOP-92 NSCLC, with HT29 colon, in the experiment on NCI-H23 lung and in the experiment with SF-295 CNS was over 100 µM throughout. The TGI in the experiment on HL-60(TB) leukemia, in the experiment on MDA-MB-231 breast and with A549 NSCLC was over 100 µM throughout.
`CC1=C(C)SC(=C2Sc3nc(O)[nH]c(=O)c3S2)S1`: the TGI in the experiment with SNB-19 CNS, with MCF7 breast, in the experiment on HOP-92 NSCLC, in the experiment on HT29 colon, in the experiment with NCI-H23 lung and with SF-295 CNS was over 100 µM throughout. Besides, the TGI with MDA-MB-231 breast, in the experiment with A549 NSCLC and in the experiment on HS 578T breast was over 100 µM throughout.
For `Cc1cccc(N/C(Sc2ccccc2)=C(/C(Cl)=C(Cl)Cl)[N+](=O)[O-])c1`, the TGI with SNB-19 CNS was over 100 µM; in the experiment with MCF7 breast, 91.3 µM; in the experiment on HT29 colon, 43.1 µM; in the experiment on NCI-H23 lung, 37 µM; in the experiment with SF-295 CNS it was 36.2 µM; in the experiment on MDA-MB-231 breast it was 53.9 µM. In addition, the TGI with A549 NSCLC was determined as 47.4 µM.
As to `CN(Cc1cnc2c(N)nc(N)nc2n1)c1ccc(Cl)cc1`, the TGI with SNB-19 CNS, in the experiment with MCF7 breast, in the experiment with NCI-H23 lung, with SF-295 CNS, in the experiment with HL-60(TB) leukemia and with MDA-MB-231 breast was over 100 µM in each case. This compound came in with a TGI in the experiment with HS 578T breast of over 100 µM.
With `CC(=O)OC(C)(C)CCC(=O)[C@](C)(O)[C@H]1[C@H](O)C[C@@]2(C)[C@@H]3CCc4c(cc(OC5OC(CO)C(O)C(O)C5O)c(O)c4C)C3(C)C(=O)C[C@]12C` (stereo partly specified), the TGI with SNB-19 CNS, with MCF7 breast, in the experiment with HOP-92 NSCLC, in the experiment on HT29 colon, in the experiment with NCI-H23 lung and in the experiment on SF-295 CNS was over 100 µM in each case. Further, the TGI in the experiment on MDA-MB-231 breast and in the experiment on A549 NSCLC was over 100 µM in each case.
Take `COc1ccccc1C1c2cc3c(cc2OC(N2CCOCC2)C1C)OCO3` (stereo unspecified): the TGI in the experiment with SNB-19 CNS stood at 37.8 µM; with MCF7 breast it was 81.5 µM; in the experiment on HT29 colon, 40.9 µM; in the experiment on NCI-H23 lung, 58.7 µM; in the experiment on SF-295 CNS it was 35.5 µM; in the experiment with A549 NSCLC, 47.3 µM. Moreover, the TGI with HS 578T breast worked out at 39 µM.
For the compound `CC1=CC2c3cccc4[nH]cc(c34)CC2N(C)C1` (stereo unspecified), the TGI in the experiment on SNB-19 CNS was over 100 µM; in the experiment with MCF7 breast, over 100 µM; in the experiment with HOP-92 NSCLC, over 80.7 µM; in the experiment on HT29 colon, over 100 µM; in the experiment on NCI-H23 lung, over 100 µM; in the experiment on SF-295 CNS it was over 100 µM. Also, the TGI in the experiment on HL-60(TB) leukemia and with A549 NSCLC was over 100 µM throughout.
`CC(C)NC(=O)OCc1c2c(n(C)c1COC(=O)NC(C)C)-c1ccccc1CC2`: the TGI in the experiment on SNB-19 CNS is 35.2 µM; with MCF7 breast, 22.4 µM; in the experiment with HOP-92 NSCLC it was 22.2 µM; in the experiment on HT29 colon, 30.3 µM; in the experiment with NCI-H23 lung, 19.7 µM; in the experiment on SF-295 CNS, 30.2 µM. Also, the TGI in the experiment on HL-60(TB) leukemia is over 32 µM; in the experiment on A549 NSCLC, 89.9 µM.
Take `O=[N+]([O-])c1ccc(NNN=Nc2ccc(-c3nc4ccccc4s3)cc2)c([N+](=O)[O-])c1`: the TGI is over 100 µM in the experiment on SNB-19 CNS; 52.7 µM in the experiment with HOP-92 NSCLC; 41.3 µM in the experiment on HT29 colon; 59.3 µM in the experiment with NCI-H23 lung; 42.6 µM in the experiment on SF-295 CNS; 69.9 µM in the experiment with HL-60(TB) leukemia. For the same compound, the TGI in the experiment on MDA-MB-231 breast is 64.3 µM; in the experiment with A549 NSCLC it was over 100 µM; with HS 578T breast it was over 100 µM.
As for `CCn1cnnc1-c1nsc2ccccc12`, the TGI in the experiment with SNB-19 CNS, in the experiment with HOP-92 NSCLC, in the experiment with HT29 colon, with NCI-H23 lung, with HL-60(TB) leukemia and in the experiment with A549 NSCLC was over 100 µM throughout.
With `CNc1nc(C(N)=O)c(N)s1`, the TGI in the experiment with SNB-19 CNS, with HOP-92 NSCLC, in the experiment with HT29 colon, in the experiment with NCI-H23 lung, in the experiment with SF-295 CNS and with HL-60(TB) leukemia was over 100 µM in each case. The TGI in the experiment on MDA-MB-231 breast, in the experiment on A549 NSCLC and with HS 578T breast was over 100 µM each time.
As to `CSc1nc2c(c(=O)[nH]1)N=C(c1ccccc1)CC(c1ccccc1)N2` (stereo unspecified), the TGI in the experiment on SNB-19 CNS is over 100 µM; with MCF7 breast, 36 µM; in the experiment on HOP-92 NSCLC it was over 100 µM; with HT29 colon, over 100 µM; with NCI-H23 lung, 98.2 µM; with SF-295 CNS, over 100 µM. Further, the TGI in the experiment on HL-60(TB) leukemia was 59.2 µM; with MDA-MB-231 breast, 45.5 µM; with A549 NSCLC, over 100 µM.
Regarding `COC(=O)CCC(NC(=O)OC(C)(C)C)C(=O)NC(Cc1ccc(NC(=O)CCCC(C)=O)cc1)C(=O)NC(CCC(=O)OC)C(=O)OC` (stereo unspecified), the TGI with SNB-19 CNS, in the experiment on MCF7 breast, with HOP-92 NSCLC, in the experiment with HT29 colon, in the experiment on NCI-H23 lung and in the experiment on SF-295 CNS was over 100 µM throughout. Further, the TGI with MDA-MB-231 breast, in the experiment with A549 NSCLC and in the experiment with HS 578T breast was over 100 µM in each case.
Take `CC(=O)Nc1cccc(N=NN(C)C)c1`: the TGI in the experiment with SNB-19 CNS, in the experiment with MCF7 breast, with HOP-92 NSCLC, in the experiment with HT29 colon, in the experiment with NCI-H23 lung and with SF-295 CNS was over 100 µM in each case. Also, the TGI in the experiment with HL-60(TB) leukemia and in the experiment with A549 NSCLC was over 100 µM each time.
In the case of `N#Cc1c(-c2ccccc2)c(CN2CCCCC2)c(=O)n2c1[nH]c1ccccc12`, the TGI with SNB-19 CNS, in the experiment on MCF7 breast, in the experiment with NCI-H23 lung, in the experiment on SF-295 CNS, with MDA-MB-231 breast and in the experiment on A549 NSCLC was over 100 µM each time.
`CCC1NC(N=Nc2ccc([N+](=O)[O-])cc2)(P(=O)(OC(C)C)OC(C)C)OC1=O` (stereo unspecified): the TGI with SNB-19 CNS, in the experiment with HOP-92 NSCLC, with HT29 colon, in the experiment with NCI-H23 lung, in the experiment with SF-295 CNS and in the experiment with HL-60(TB) leukemia was over 100 µM each time. Also, the TGI in the experiment with A549 NSCLC was over 100 µM.
